In patent publication US9567306B2, “Inhibition of macrophage migration inhibitory factor in melanoma and colon cancer” (THE FEINSTEIN INSTITUTE FOR MEDICAL RESEARCH, priority 2014, dated 2017):
Entries after “also recorded” stand apart in the source; their conditions may differ. Values belong to the compound of their own block, whether it stands above or below them.

How the values were obtained:
[1] = system: B16 tumor; conditions: 80 mg/kg (Yaddanapudi et al.); cited from earlier work
[2] = system: CT-26 colon tumors; conditions: administered twice per week (He et al.); cited from earlier work
[3] = target: T1, MIF (Homo sapiens, UniProt P14174); experiment: MIF tautomerase inhibition assay (L-dopachrome methyl ester); assay type: biochemical
T1 sequence (P14174 2-115 limits assumed): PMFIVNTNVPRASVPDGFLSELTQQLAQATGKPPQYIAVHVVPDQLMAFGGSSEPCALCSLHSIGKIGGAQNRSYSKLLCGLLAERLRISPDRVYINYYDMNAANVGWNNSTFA
Experimental: MIF tautomerase inhibition assay: MIF tautomerase activity was measured using a UV-Visible spectrophotometer (SHIMADZU, UV1600U). A fresh stock solution of L-dopachrome methyl ester was prepared at 2.4 mM through oxidation of L-3,4-dihydroxyphenylalanine methyl ester with sodium periodate. 1 μL of MIF solution (800-900 μg/mL) and 1 μL of a dimethyl sulfoxide (DMSO) solution with various concentrations of the MIF inhibitor were added into a plastic cuvette (10 mm, 1.5 mL) containing 0.7 mL assay buffer (50 mM potassium phosphate, pH 7.2). Then, activated L-dopachrome methyl ester solution (0.3 mL) was added to the assay buffer mixture. Activity was determined at room temperature and spectrometric measurements were made every 5 sec at λ, =475 nm for total 20 sec, by monitoring the rate of decolorization of L-dopachrome in comparison to a standard solution.

[4] = Solubility comparison; assay type: physicochemical; conditions: relative to ISO-66
[5] = Stability in buffer (decarboxylation, mass spectrometry); assay type: physicochemical; conditions: upon formulation in buffer; by mass spectrometry

SMILES: Ic1cc(-c2ccccc2)ncn1 [4-IPP]
- effect on rate of B16 tumor growth [1]: significantly slowed the rate of B16 tumor growth

SMILES: COC(=O)CC1CC(c2ccc(O)cc2)=NO1 (centres unmarked) [ISO-1]
- inhibition of CT-26 colon tumors [2]: 25%

- IC50 [3]: 1800 nM
- solubility [4]: better solubility than ISO-66
SMILES: O=C(O)CC(=O)CC1CC(c2ccc(O)c(F)c2)=NO1 (centres unmarked) [KF III 53Y]
- stability (decarboxylation to ISO-66) [5]: spontaneously decarboxylates to form ISO-66; also recorded: undergoes fast decarboxlyation to form ISO-66; also recorded: spontaneously decarboxylated non-enzymatically
